According to US10723724B2, “Compounds for treating degenerative diseases of central nervous system or brain tumor, and uses thereof” (SUN YAT-SEN UNIVERSITY, priority 2016, dated 2020):

Assays:
Type in all cases: biochemical
[1] = molecular target: T1, CSNK2A1 (CK2 alpha 1) (Homo sapiens, UniProt P68400); assay: Kinase screening service: CSNK2A1; details: average of duplicates
T1 construct: purchased Life Technologies Corporation (Kinase Screening Service)
Experimental: (§1) The inhibitory effect of PT109 on other kinases including SGK and JNK was detected by the Kinase Screening Service of Life Technologies Corporation (The concentration of compound 9 was 10 μM, measurements were performed in duplicates, and the value was represented by an average) to investigate the selectivity of the compound for JNK and SGK1.

[2] = molecular target: T2, FGFR4 (Homo sapiens, UniProt P22455); assay: Kinase screening service: FGFR4; details: average of duplicates
T2 construct: purchased Life Technologies Corporation (Kinase Screening Service)
Experimental: as §1

[3] = molecular target: T3, EGFR (ErbB1) (Homo sapiens, UniProt P00533); assay: Kinase screening service: EGFR; details: average of duplicates
T3 construct: purchased Life Technologies Corporation (Kinase Screening Service)
Experimental: as §1

[4] = molecular target: T4, PKN1 (PRK1) (Homo sapiens, UniProt Q16512); assay: Kinase screening service: PKN1; details: average of duplicates
T4 construct: purchased Life Technologies Corporation (Kinase Screening Service)
Experimental: as §1

[5] = molecular target: T5, FGFR1 (Homo sapiens, UniProt P11362); assay: Kinase screening service: FGFR1; details: average of duplicates
T5 construct: purchased Life Technologies Corporation (Kinase Screening Service)
Experimental: as §1

[6] = molecular target: T6, TAOK2 (TAO1) (Homo sapiens, UniProt Q9UL54); assay: Kinase screening service: TAOK2; details: average of duplicates
T6 construct: purchased Life Technologies Corporation (Kinase Screening Service)
Experimental: as §1

[7] = molecular target: T7, MAP2K1 (MEK1) S218D S222D (Homo sapiens, UniProt Q02750, S218D/S222D); assay: Kinase screening service: MAP2K1 S218D S222D; details: average of duplicates
T7 construct: purchased Life Technologies Corporation (Kinase Screening Service)
Experimental: as §1

[8] = molecular target: T8, CSNK2A2 (CK2 alpha 2) (Homo sapiens, UniProt P19784); assay: Kinase screening service: CSNK2A2; details: average of duplicates
T8 construct: purchased Life Technologies Corporation (Kinase Screening Service)
Experimental: as §1

[9] = molecular target: T9, GRK5 (Homo sapiens, UniProt P34947); assay: Kinase screening service: GRK5; details: average of duplicates
T9 construct: purchased Life Technologies Corporation (Kinase Screening Service)
Experimental: as §1

[10] = molecular target: T10, CSNK1G3 (CK1 gamma 3) (Homo sapiens, UniProt Q9Y6M4); assay: Kinase screening service: CSNK1G3; details: average of duplicates
T10 construct: purchased Life Technologies Corporation (Kinase Screening Service)
Experimental: as §1

[11] = test system: other kinases including SGK and JNK; assay: Kinase selectivity of PT109 (whole panel); details: 10 μM, kinase panel of Table 2
Experimental: as §1

[12] = molecular target: T11, SGK2 (Homo sapiens, UniProt Q9HBY8); assay: Kinase screening service (Life Technologies): SGK2
T11 construct: purchased Life Technologies Corporation (kinase screening service)
Description: (§2) The inhibitory effect of PT109 on SGK and INK was detected by the kinase screening commercialization service of Life Technologies Corporation.

[13] = molecular target: T12, ADRBK1 (GRK2) (Homo sapiens, UniProt P25098); assay: Kinase screening service: ADRBK1; details: average of duplicates
T12 construct: purchased Life Technologies Corporation (Kinase Screening Service)
Experimental: as §1

[14] = molecular target: T13, CSNK1D (CK1 delta) (Homo sapiens, UniProt P48730); assay: Kinase screening service: CSNK1D; details: average of duplicates
T13 construct: purchased Life Technologies Corporation (Kinase Screening Service)
Experimental: as §1

[15] = molecular target: T14, PRKCG (PKC gamma) (Homo sapiens, UniProt P05129); assay: Kinase screening service: PRKCG; details: average of duplicates
T14 construct: purchased Life Technologies Corporation (Kinase Screening Service)
Experimental: as §1

[16] = molecular target: T15, TEC (Homo sapiens, UniProt P42680); assay: Kinase screening service: TEC; details: average of duplicates
T15 construct: purchased Life Technologies Corporation (Kinase Screening Service)
Experimental: as §1

[17] = molecular target: T16, WNK2 (Homo sapiens, UniProt Q9Y3S1); assay: Kinase screening service: WNK2; details: average of duplicates
T16 construct: purchased Life Technologies Corporation (Kinase Screening Service)
Experimental: as §1

[18] = molecular target: T17, NEK4 (Homo sapiens, UniProt P51957); assay: Kinase screening service: NEK4; details: average of duplicates
T17 construct: purchased Life Technologies Corporation (Kinase Screening Service)
Experimental: as §1

[19] = molecular target: T18, AKT2 (PKB beta) (Homo sapiens, UniProt P31751); assay: Kinase screening service: AKT2; details: average of duplicates
T18 construct: purchased Life Technologies Corporation (Kinase Screening Service)
Experimental: as §1

[20] = molecular target: T19, TLK1 (Homo sapiens, UniProt Q9UKI8); assay: Kinase screening service: TLK1; details: average of duplicates
T19 construct: purchased Life Technologies Corporation (Kinase Screening Service)
Experimental: as §1

[21] = molecular target: T20, ULK2 (Homo sapiens, UniProt Q8IYT8); assay: Kinase screening service: ULK2; details: average of duplicates
T20 construct: purchased Life Technologies Corporation (Kinase Screening Service)
Experimental: as §1

[22] = molecular target: T21, PIK3C2A (PI3K-C2 alpha) (Homo sapiens, UniProt O00443); assay: Kinase screening service: PIK3C2A; details: average of duplicates
T21 construct: purchased Life Technologies Corporation (Kinase Screening Service)
Experimental: as §1

[23] = molecular target: T22, MAP3K7/MAP3K7IP1 (TAK1-TAB1) (Homo sapiens, UniProt O43318); assay: Kinase screening service: MAP3K7/MAP3K7IP1; details: average of duplicates
T22 construct: purchased Life Technologies Corporation (Kinase Screening Service)
Experimental: as §1

[24] = molecular target: T23, MAPK10 (JNK3) (Homo sapiens, UniProt P53779); assay: Kinase screening service (Life Technologies): JNK3; details: average of duplicates
T23 construct: purchased Life Technologies Corporation (kinase screening service)
Experimental: as §2, §1

[25] = molecular target: T24, MAPK1 (ERK2) (Homo sapiens, UniProt P28482); assay: Kinase screening service: MAPK1; details: average of duplicates
T24 construct: purchased Life Technologies Corporation (Kinase Screening Service)
Experimental: as §1

[26] = molecular target: T25, FLT1 (VEGFR1) (Homo sapiens, UniProt P17948); assay: Kinase screening service: FLT1; details: average of duplicates
T25 construct: purchased Life Technologies Corporation (Kinase Screening Service)
Experimental: as §1

[27] = molecular target: T26, MAP3K9 (MLK1) (Homo sapiens, UniProt P80192); assay: Kinase screening service: MAP3K9; details: average of duplicates
T26 construct: purchased Life Technologies Corporation (Kinase Screening Service)
Experimental: as §1

[28] = molecular target: T27, MAP4K4 (HGK) (Homo sapiens, UniProt O95819); assay: Kinase screening service: MAP4K4; details: average of duplicates
T27 construct: purchased Life Technologies Corporation (Kinase Screening Service)
Experimental: as §1

[29] = molecular target: T28, PDK1 Direct (Homo sapiens, UniProt O15530); assay: Kinase screening service: PDK1 Direct; details: average of duplicates
T28 construct: purchased Life Technologies Corporation (Kinase Screening Service)
Experimental: as §1

[30] = molecular target: T29, PTK6 (Brk) (Homo sapiens, UniProt Q13882); assay: Kinase screening service: PTK6; details: average of duplicates
T29 construct: purchased Life Technologies Corporation (Kinase Screening Service)
Experimental: as §1

[31] = molecular target: T30, GSK3A (GSK3 alpha) (Homo sapiens, UniProt P49840); assay: Kinase screening service: GSK3A; details: average of duplicates
T30 construct: purchased Life Technologies Corporation (Kinase Screening Service)
Experimental: as §1

[32] = molecular target: T31, MKNK2 (MNK2) (Homo sapiens, UniProt Q9HBH9); assay: Kinase screening service: MKNK2; details: average of duplicates
T31 construct: purchased Life Technologies Corporation (Kinase Screening Service)
Experimental: as §1

[33] = molecular target: T32, PRKCI (PKC iota) (Homo sapiens, UniProt P41743); assay: Kinase screening service: PRKCI; details: average of duplicates
T32 construct: purchased Life Technologies Corporation (Kinase Screening Service)
Experimental: as §1

[34] = molecular target: T33, CSNK1G1 (CK1 gamma 1) (Homo sapiens, UniProt Q9HCP0); assay: Kinase screening service: CSNK1G1; details: average of duplicates
T33 construct: purchased Life Technologies Corporation (Kinase Screening Service)
Experimental: as §1

[35] = molecular target: T34, PHKG1 (Homo sapiens, UniProt Q16816); assay: Kinase screening service: PHKG1; details: average of duplicates
T34 construct: purchased Life Technologies Corporation (Kinase Screening Service)
Experimental: as §1

[36] = molecular target: T35, WNK3 (Homo sapiens, UniProt Q9BYP7); assay: Kinase screening service: WNK3; details: average of duplicates
T35 construct: purchased Life Technologies Corporation (Kinase Screening Service)
Experimental: as §1

[37] = molecular target: T36, DYRK1A (Homo sapiens, UniProt Q13627); assay: Kinase screening service: DYRK1A; details: average of duplicates
T36 construct: purchased Life Technologies Corporation (Kinase Screening Service)
Experimental: as §1

T34 sequence (Q16816 whole entry): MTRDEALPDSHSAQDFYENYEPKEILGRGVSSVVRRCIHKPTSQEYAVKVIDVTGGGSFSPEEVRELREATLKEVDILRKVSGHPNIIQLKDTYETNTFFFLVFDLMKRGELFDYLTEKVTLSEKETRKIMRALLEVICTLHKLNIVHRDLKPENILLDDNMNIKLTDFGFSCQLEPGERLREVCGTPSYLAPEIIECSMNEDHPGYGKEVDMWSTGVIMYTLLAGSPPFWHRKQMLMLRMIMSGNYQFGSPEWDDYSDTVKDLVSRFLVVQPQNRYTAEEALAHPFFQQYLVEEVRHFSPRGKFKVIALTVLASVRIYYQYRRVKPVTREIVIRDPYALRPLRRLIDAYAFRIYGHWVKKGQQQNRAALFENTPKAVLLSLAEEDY
T27 sequence (O95819 whole entry): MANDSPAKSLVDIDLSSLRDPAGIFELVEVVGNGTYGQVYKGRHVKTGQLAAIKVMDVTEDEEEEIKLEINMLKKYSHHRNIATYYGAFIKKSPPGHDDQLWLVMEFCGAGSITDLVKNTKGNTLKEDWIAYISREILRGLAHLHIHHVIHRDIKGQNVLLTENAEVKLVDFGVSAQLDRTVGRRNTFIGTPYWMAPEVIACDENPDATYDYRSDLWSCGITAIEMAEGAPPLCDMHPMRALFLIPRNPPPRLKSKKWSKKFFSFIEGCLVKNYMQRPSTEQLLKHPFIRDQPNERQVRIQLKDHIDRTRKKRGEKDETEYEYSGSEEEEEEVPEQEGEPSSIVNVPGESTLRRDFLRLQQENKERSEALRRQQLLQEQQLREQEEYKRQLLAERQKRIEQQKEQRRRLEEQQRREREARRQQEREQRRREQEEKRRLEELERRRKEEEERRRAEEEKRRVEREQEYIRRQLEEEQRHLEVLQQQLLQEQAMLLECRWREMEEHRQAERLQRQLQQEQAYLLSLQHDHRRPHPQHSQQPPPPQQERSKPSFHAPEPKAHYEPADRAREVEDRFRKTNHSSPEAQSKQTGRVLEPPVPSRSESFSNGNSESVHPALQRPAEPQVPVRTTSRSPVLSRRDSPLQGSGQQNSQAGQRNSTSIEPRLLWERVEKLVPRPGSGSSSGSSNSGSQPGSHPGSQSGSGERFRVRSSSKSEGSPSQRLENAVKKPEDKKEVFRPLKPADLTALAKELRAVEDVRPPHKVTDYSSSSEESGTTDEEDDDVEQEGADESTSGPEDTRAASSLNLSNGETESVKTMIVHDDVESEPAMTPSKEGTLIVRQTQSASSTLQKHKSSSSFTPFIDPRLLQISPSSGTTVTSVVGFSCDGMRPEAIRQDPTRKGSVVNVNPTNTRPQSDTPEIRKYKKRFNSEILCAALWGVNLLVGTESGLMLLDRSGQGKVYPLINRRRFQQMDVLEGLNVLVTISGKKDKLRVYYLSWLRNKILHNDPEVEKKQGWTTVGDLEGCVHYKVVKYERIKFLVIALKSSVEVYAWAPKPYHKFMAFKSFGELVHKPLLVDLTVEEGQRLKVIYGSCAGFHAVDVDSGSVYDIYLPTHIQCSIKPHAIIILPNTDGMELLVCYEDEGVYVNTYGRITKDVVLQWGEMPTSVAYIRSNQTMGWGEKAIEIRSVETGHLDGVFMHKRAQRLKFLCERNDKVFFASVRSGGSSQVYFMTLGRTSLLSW
T17 sequence (P51957 whole entry): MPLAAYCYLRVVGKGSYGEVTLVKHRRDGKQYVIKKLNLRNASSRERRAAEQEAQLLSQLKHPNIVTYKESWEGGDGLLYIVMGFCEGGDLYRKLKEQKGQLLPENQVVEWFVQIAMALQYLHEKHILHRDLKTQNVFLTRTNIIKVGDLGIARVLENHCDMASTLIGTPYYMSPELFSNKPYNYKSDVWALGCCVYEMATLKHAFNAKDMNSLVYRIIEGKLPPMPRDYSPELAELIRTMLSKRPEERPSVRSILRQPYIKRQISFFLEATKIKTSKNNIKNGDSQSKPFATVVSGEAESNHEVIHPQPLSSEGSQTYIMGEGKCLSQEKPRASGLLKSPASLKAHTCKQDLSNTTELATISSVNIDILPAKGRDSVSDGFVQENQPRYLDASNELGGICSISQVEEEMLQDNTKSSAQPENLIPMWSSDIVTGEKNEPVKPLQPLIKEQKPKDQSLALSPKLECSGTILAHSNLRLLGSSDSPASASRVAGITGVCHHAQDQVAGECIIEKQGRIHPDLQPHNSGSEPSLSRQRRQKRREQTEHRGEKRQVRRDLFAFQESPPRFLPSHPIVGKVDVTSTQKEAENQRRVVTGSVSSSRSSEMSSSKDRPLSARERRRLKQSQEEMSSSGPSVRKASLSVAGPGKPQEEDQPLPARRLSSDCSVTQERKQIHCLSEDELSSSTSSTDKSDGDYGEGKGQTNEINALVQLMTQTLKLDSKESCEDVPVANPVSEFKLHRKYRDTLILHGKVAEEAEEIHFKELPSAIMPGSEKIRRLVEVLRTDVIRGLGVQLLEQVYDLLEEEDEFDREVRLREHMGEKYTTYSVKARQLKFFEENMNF
T4 sequence (Q16512 whole entry): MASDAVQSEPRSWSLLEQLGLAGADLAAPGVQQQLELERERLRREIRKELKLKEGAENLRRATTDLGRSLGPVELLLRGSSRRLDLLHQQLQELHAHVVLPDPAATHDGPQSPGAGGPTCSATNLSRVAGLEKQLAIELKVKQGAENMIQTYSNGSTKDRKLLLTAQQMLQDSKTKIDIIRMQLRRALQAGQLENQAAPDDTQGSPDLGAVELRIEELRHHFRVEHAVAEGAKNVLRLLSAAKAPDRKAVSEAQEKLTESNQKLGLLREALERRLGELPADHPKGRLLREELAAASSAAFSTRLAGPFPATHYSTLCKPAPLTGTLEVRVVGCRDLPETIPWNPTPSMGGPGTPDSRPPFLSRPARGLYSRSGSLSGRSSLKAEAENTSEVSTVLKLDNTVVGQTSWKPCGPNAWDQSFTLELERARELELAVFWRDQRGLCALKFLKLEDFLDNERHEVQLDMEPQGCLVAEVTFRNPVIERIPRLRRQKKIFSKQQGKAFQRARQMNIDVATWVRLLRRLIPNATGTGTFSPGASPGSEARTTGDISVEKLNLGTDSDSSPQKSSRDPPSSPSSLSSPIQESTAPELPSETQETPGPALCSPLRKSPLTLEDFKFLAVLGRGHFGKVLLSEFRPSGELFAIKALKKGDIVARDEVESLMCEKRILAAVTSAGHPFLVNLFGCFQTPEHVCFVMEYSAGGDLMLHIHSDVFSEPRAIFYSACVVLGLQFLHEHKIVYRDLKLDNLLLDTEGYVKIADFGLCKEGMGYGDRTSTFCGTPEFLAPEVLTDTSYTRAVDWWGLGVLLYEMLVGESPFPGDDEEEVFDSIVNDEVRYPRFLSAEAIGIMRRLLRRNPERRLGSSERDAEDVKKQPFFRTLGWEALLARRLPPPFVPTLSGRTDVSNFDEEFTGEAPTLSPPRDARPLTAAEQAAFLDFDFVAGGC
T6 sequence (Q9UL54 whole entry): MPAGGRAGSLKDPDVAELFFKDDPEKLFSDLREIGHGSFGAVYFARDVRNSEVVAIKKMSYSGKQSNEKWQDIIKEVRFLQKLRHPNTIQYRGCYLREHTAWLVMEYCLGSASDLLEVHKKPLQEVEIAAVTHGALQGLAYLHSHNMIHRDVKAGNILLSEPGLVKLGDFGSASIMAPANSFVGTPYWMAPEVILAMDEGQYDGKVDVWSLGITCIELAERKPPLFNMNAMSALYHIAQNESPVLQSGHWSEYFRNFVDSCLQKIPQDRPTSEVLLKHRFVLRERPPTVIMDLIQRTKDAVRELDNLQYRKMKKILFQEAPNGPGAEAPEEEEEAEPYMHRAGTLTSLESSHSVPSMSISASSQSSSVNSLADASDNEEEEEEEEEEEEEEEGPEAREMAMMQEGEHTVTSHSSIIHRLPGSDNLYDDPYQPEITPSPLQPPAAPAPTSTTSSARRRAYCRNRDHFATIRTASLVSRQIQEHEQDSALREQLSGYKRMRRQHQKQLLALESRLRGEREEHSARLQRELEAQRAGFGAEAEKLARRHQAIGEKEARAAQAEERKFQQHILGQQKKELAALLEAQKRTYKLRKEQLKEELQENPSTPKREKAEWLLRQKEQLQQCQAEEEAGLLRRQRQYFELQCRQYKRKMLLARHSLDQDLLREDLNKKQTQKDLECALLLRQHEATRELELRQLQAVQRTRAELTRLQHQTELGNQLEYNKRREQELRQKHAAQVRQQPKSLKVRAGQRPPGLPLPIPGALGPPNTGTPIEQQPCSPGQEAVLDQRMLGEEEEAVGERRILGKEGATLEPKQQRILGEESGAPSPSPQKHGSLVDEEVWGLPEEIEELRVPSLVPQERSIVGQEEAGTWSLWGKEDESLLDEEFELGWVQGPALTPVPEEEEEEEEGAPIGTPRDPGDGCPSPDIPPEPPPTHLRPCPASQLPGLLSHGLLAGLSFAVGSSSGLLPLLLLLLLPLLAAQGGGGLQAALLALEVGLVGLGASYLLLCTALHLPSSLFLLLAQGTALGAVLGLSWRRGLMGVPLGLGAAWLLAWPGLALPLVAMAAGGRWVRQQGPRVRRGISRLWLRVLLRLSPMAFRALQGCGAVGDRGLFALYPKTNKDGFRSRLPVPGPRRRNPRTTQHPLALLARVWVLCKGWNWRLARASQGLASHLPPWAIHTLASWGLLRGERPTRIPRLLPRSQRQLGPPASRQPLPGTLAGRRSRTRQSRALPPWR
T7 sequence (Q02750 whole entry S218D/S222D): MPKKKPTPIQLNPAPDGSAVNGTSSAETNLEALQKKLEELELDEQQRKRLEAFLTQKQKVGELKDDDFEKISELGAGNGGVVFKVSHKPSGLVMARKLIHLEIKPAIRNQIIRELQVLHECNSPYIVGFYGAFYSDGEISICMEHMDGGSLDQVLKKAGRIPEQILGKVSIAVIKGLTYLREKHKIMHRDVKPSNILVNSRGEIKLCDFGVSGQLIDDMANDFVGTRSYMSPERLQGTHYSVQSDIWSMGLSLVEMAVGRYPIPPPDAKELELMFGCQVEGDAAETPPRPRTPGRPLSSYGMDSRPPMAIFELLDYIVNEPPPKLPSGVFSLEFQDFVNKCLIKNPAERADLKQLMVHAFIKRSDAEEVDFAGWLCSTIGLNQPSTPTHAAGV

inhibition at 10 µM [1]: 14% | inhibition at 10 µM [2]: -2% | inhibition at 10 µM [3]: -6% | inhibition at 10 µM [4]: 16% | inhibition at 10 µM [5]: -3% | inhibition at 10 µM [6]: -6% | inhibition at 10 µM [7]: 13% | inhibition at 10 µM [8]: 11% | inhibition at 10 µM [9]: 2% | inhibition at 10 µM [10]: 24% | specificity for SGK1 and JNK [11]: better specificity for SGK1 and JNK | IC50 [12]: 5.6 µM | inhibition at 10 µM [13]: 6% | inhibition at 10 µM [14]: 6% | inhibition at 10 µM [15]: 63% | inhibition at 10 µM [16]: 26% | inhibition at 10 µM [17]: 13% | inhibition at 10 µM [18]: 3% | inhibition at 10 µM [19]: 30% | inhibition at 10 µM [20]: 20% | inhibition at 10 µM [21]: 4% | inhibition at 10 µM [22]: 3% | inhibition at 10 µM [23]: 39% | inhibition at 10 µM [24]: 90% | inhibition at 10 µM [25]: 4% | inhibition at 10 µM [26]: 3% | inhibition at 10 µM [27]: 2% | inhibition at 10 µM [28]: 34% | inhibition at 10 µM [29]: 51% | inhibition at 10 µM [30]: 7% | inhibition at 10 µM [31]: 41% | inhibition at 10 µM [32]: 26% | inhibition at 10 µM [33]: -14% | inhibition at 10 µM [34]: 9% | inhibition at 10 µM [35]: 10% | inhibition at 10 µM [36]: 7% | inhibition at 10 µM [37]: 16%
SMILES: O=C(CCCCC1CCSS1)NC1CCC(Nc2cccc3cnccc23)CC1 (stereo not shown) [PT109, 5-(1,2-dithiolan-3-yl)-N-(4-(isoquinolin-5-ylamino)cyclohexyl) pentanamide]
